Literature values, collected in patent publication US8038645B2 (Bayer Technology Services GmbH, priority 2005, dated 2011).
Like-named read-outs stand apart in the source and are kept apart here.

Assays:
[1] = input parameter for PK-Sim
[2] = input parameter for PK-Sim; remark: listed apart in the source

Q: For CC(C)c1cccc(C(C)C)c1O [propofol], which Lipophilicity [1] is on record?
A: Its Lipophilicity is 2.6.

Q: What about the “Free plasma fraction (age-dependent)” value [2] of the same molecule?
A: The value was 0.020-0.025.

Q: And the “Blood clearance in ml/min: mean (std. dev.)” value (“Blood clearance in ml/min” below) (Ickz et al., adults, mean age 45.2 years, 21 mg/kg/h for 5 min, then 12 mg/kg/h for 10 min, then 6 mg/kg/h)?
A: The value was 33.8 (7.8) ml/min.

Q: And the “Blood clearance in ml/min” value (Kanto et al., pregnant women, mean age 27.1 years, 2.5 mg/kg bolus over 0.17 min)?
A: Its value is 27.5 (5.5) ml/min.

Q: And the “Blood clearance in ml/min” value (Mertens et al., young men, mean age 24 years, 1 mg/kg bolus over 1 min, then 3 mg/kg/h)?
A: Its value is 31.2 (2.8) ml/min.

Q: What about the “Blood clearance in ml/min” value (Raoof et al., children, mean age 1.9 years, 3 mg/kg iv) of the same molecule?
A: The value was 38.7 (6.8) ml/min.

Q: And the “Blood clearance in ml/min” value (Saint-Maurice et al., children, mean age 5.5 years, 2.5 mg/kg bolus over 0.33 min)?
A: Its value is 30.6 (2.9) ml/min.

Q: What about the “Blood clearance in ml/min” value (Valtonen et al., children, mean age 6.5 years, 2.5 mg/kg bolus over 0.5 min) of the same molecule?
A: The value was 32.0 (16.8) ml/min.

Q: What about the “Clearance (age-dependent)” value (input parameter for PK-Sim) of the same molecule?
A: Its value is 29 to 50 mL/min/kg.
